# According to PubChem BioAssay (NCI):
#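 1) Cells in 96-well plates. 2) Compound, 48 h, 5 concentrations. 3) Linear interpolation between surrounding doses. 4) Unreached endpoint = highest concentration. At the TGI there is no net growth.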 *1 amine or outer side, *2 acyl side, *3 side chain or, on linkers, in order; H or OH if unused. Where a SMILES comes first, the peptide text is derived from it. Bridges are numbered along the chain shown (N, C = ends). [ ]: non-standard residue; d: D form. X59 = COc1c(N[*:1])cccc1C(=O)O[C@H](C(=O)[C@H](C)C(=O)[*:2])C(C)C; X58 = CC(C)C[C@H](C(=O)[*:2])C(C)C(=O)C1CCCN1[*:1]; NMeY = CN[C@@H](Cc1ccc(O)cc1)C(=O)O; Lac = C[C@H](O)C(=O)O
# Experiments:
# Assay in all cases: growth of human tumour cells (NCI), 48 h
# 786-0 renal = system: 786-0 renal
# RXF 393 renal = system: RXF 393 renal
# DU-145 prostate = system: DU-145 prostate
# NCI-H23 lung = system: NCI-H23 lung
# OVCAR-4 ovarian = system: OVCAR-4 ovarian
# KM12 colon = system: KM12 colon
compound,measurement,setting,value
Cc1c(-c2ccccc2)c(C#N)c2nnn(C)c(=O)n12,TGI,786-0 renal,> 100 µM
same,TGI,RXF 393 renal,> 100 µM
same,TGI,DU-145 prostate,> 100 µM
same,TGI,NCI-H23 lung,> 100 µM
same,TGI,OVCAR-4 ovarian,> 100 µM
same,TGI,KM12 colon,> 100 µM
Oc1ccccc1-c1n[nH]c(-c2ccccc2O)n1,TGI,786-0 renal,> 100 µM
same,TGI,RXF 393 renal,> 100 µM
same,TGI,DU-145 prostate,> 100 µM
same,TGI,OVCAR-4 ovarian,> 100 µM
same,TGI,KM12 colon,> 100 µM
O=C(/C=C/c1ccccc1Br)c1ccccc1,TGI,786-0 renal,4.39 µM
same,TGI,RXF 393 renal,20.1 µM
same,TGI,DU-145 prostate,20.1 µM
same,TGI,NCI-H23 lung,12.6 µM
same,TGI,OVCAR-4 ovarian,6.03 µM
same,TGI,KM12 colon,6.53 µM
Brc1ccc(N=Nc2ccc3ccccc3n2)cc1,TGI,786-0 renal,27.1 µM
same,TGI,RXF 393 renal,> 100 µM
same,TGI,DU-145 prostate,> 100 µM
same,TGI,NCI-H23 lung,> 100 µM
same,TGI,KM12 colon,> 100 µM
Cc1ccc(S(=O)(=O)OI(O)CC(F)(F)F)cc1,TGI,786-0 renal,> 100 µM
same,TGI,RXF 393 renal,> 100 µM
same,TGI,DU-145 prostate,> 100 µM
same,TGI,NCI-H23 lung,> 100 µM
same,TGI,OVCAR-4 ovarian,> 100 µM
same,TGI,KM12 colon,> 100 µM
COC(=O)C1=C(C(=O)OC)C(OO)(c2ccccc2)OC1=O (stereo unspecified),TGI,786-0 renal,> 100 µM
same,TGI,RXF 393 renal,> 100 µM
same,TGI,DU-145 prostate,> 100 µM
same,TGI,NCI-H23 lung,> 100 µM
same,TGI,OVCAR-4 ovarian,> 100 µM
same,TGI,KM12 colon,> 100 µM
O=C1O/C(=C(/Cl)c2c3ccccc3cc3ccccc23)c2ccccc21,TGI,786-0 renal,40.5 µM
same,TGI,RXF 393 renal,96.4 µM
same,TGI,DU-145 prostate,> 100 µM
same,TGI,NCI-H23 lung,79.9 µM
same,TGI,OVCAR-4 ovarian,90.3 µM
same,TGI,KM12 colon,17.3 µM
COC(=O)/C=C1/OC(c2ccc(C)cc2C)=CC1=O,TGI,786-0 renal,24.2 µM
same,TGI,RXF 393 renal,24.9 µM
same,TGI,DU-145 prostate,30 µM
same,TGI,NCI-H23 lung,61 µM
same,TGI,KM12 colon,31.8 µM
CN(C(=O)c1cc2c(s1)sc1c(=O)n(C)c3ccccc3c12)c1ccccc1,TGI,786-0 renal,> 100 µM
same,TGI,RXF 393 renal,> 100 µM
same,TGI,DU-145 prostate,> 100 µM
same,TGI,NCI-H23 lung,69.5 µM
same,TGI,OVCAR-4 ovarian,> 100 µM
same,TGI,KM12 colon,> 100 µM
Cc1ccc2nc(-c3ccc(-c4nc5ccc(C)cc5o4)c(O)c3)oc2c1,TGI,786-0 renal,> 100 µM
same,TGI,DU-145 prostate,> 100 µM
same,TGI,NCI-H23 lung,> 100 µM
CC1(C)N([O-])[N+](=O)C1(Br)c1ccccc1 (stereo unspecified),TGI,786-0 renal,> 100 µM
same,TGI,RXF 393 renal,> 100 µM
same,TGI,DU-145 prostate,> 100 µM
same,TGI,NCI-H23 lung,> 100 µM
same,TGI,OVCAR-4 ovarian,> 100 µM
same,TGI,KM12 colon,> 100 µM
CC1=NN(C(=O)CC(=O)Nc2ccc(Cl)cc2)C(=O)C1N=Nc1ccc(S(=O)(=O)c2ccc(N=NC3C(=O)N(C(=O)CC(=O)Nc4ccc(Cl)cc4)N=C3C)cc2)cc1 (stereo unspecified),TGI,786-0 renal,> 100 µM
same,TGI,RXF 393 renal,> 100 µM
same,TGI,DU-145 prostate,> 100 µM
same,TGI,NCI-H23 lung,> 100 µM
same,TGI,OVCAR-4 ovarian,> 100 µM
same,TGI,KM12 colon,> 100 µM
COC(=O)C1Cc2c([nH]c3ccccc23)-c2[nH]c3ccccc3c2CC(NC(C)=O)C(=O)NCC(=O)NCC(=O)N1 (stereo unspecified),TGI,786-0 renal,> 100 µM
same,TGI,RXF 393 renal,> 100 µM
same,TGI,DU-145 prostate,> 100 µM
same,TGI,NCI-H23 lung,> 100 µM
same,TGI,KM12 colon,> 100 µM
COc1cc(/C=C2\CC(C)C/C(=C\c3ccc(O)c(OC)c3)C2=O)ccc1O (stereo unspecified),TGI,786-0 renal,> 100 µM
same,TGI,RXF 393 renal,7.56 µM
same,TGI,DU-145 prostate,12.7 µM
same,TGI,NCI-H23 lung,11 µM
same,TGI,OVCAR-4 ovarian,8.96 µM
same,TGI,KM12 colon,3.86 µM
COc1ccc(C[C@H]2C(=O)O[C@H](C)[C@H](NC(=O)[C@@H](CC(C)C)C(C)C(=O)C3CCCN3C(=O)[C@H](C)O)C(=O)Nc3cccc(c3OC)C(=O)O[C@@H](C(C)C)C(=O)[C@H](C)C(=O)N[C@@H](CC(C)C)C(=O)N3CCC[C@H]3C(=O)N2C)cc1 (stereo partly specified) (H-[Lac][X58]T[X59]LP[NMeY](Me); ester 3-C),TGI,786-0 renal,> 12.5 µM
same,TGI,RXF 393 renal,> 12.5 µM
same,TGI,DU-145 prostate,> 12.5 µM
same,TGI,NCI-H23 lung,> 12.5 µM
same,TGI,OVCAR-4 ovarian,> 12.5 µM
same,TGI,KM12 colon,> 12.5 µM
N/N=C(/CC(O)(C(F)(F)F)C(F)(F)F)c1ccccc1,TGI,786-0 renal,> 10 µM
same,TGI,RXF 393 renal,> 10 µM
same,TGI,DU-145 prostate,> 10 µM
same,TGI,NCI-H23 lung,> 10 µM
same,TGI,OVCAR-4 ovarian,> 10 µM
same,TGI,KM12 colon,> 10 µM
COC(=O)/C=C/C(=O)Nc1cc(Cl)c(Cl)cc1CC(=O)N(C)[C@H]1CCCC[C@@H]1N1CCCC1,TGI,786-0 renal,22.1 µM
same,TGI,RXF 393 renal,17.7 µM
same,TGI,DU-145 prostate,19.9 µM
same,TGI,NCI-H23 lung,30.4 µM
same,TGI,OVCAR-4 ovarian,> 41.6 µM
same,TGI,KM12 colon,> 56 µM
O=S1(=O)c2ccccc2-c2nccc3ccnc1c23,TGI,786-0 renal,> 100 µM
same,TGI,RXF 393 renal,> 100 µM
same,TGI,DU-145 prostate,> 100 µM
same,TGI,NCI-H23 lung,44 µM
same,TGI,OVCAR-4 ovarian,> 100 µM
same,TGI,KM12 colon,> 100 µM
CC(CC(C)[C@H]1CCC2[C@H]3C(CC(=O)[C@@]21C)[C@@]1(C)CCC(O)C[C@H]1C[C@@H]3O)C(=O)O (stereo partly specified),TGI,786-0 renal,> 100 µM
same,TGI,RXF 393 renal,> 100 µM
same,TGI,DU-145 prostate,> 100 µM
same,TGI,NCI-H23 lung,> 100 µM
same,TGI,OVCAR-4 ovarian,> 100 µM
same,TGI,KM12 colon,> 100 µM
C=CC[C@@]12CCC(=O)C=C1CCCC2=O,TGI,786-0 renal,> 100 µM
same,TGI,RXF 393 renal,> 100 µM
same,TGI,DU-145 prostate,> 100 µM
same,TGI,NCI-H23 lung,> 100 µM
same,TGI,OVCAR-4 ovarian,> 100 µM
COCCNC1CCC(=O)c2[nH]c3ccccc3c21 (stereo unspecified),TGI,786-0 renal,> 100 µM
same,TGI,RXF 393 renal,> 100 µM
same,TGI,DU-145 prostate,> 100 µM
same,TGI,NCI-H23 lung,> 100 µM
same,TGI,OVCAR-4 ovarian,> 100 µM
same,TGI,KM12 colon,> 100 µM
O=c1cc(-c2ccc3ccccc3c2)[nH]c2ncccc12,TGI,786-0 renal,> 100 µM
same,TGI,DU-145 prostate,> 100 µM
same,TGI,NCI-H23 lung,> 100 µM
same,TGI,OVCAR-4 ovarian,> 100 µM
same,TGI,KM12 colon,> 100 µM
COc1cccc(N2C(=O)C3c4[nH]c5ccc(C)cc5c4C4CCC(C)CC4C3C2=O)c1 (stereo unspecified),TGI,786-0 renal,> 100 µM
same,TGI,RXF 393 renal,47.3 µM
same,TGI,DU-145 prostate,> 100 µM
same,TGI,NCI-H23 lung,> 100 µM
CN(C)CCN=C1Nc2ccccc2C(=O)N2CSCC12 (stereo unspecified),TGI,786-0 renal,> 100 µM
same,TGI,RXF 393 renal,> 100 µM
same,TGI,DU-145 prostate,> 100 µM
same,TGI,OVCAR-4 ovarian,> 100 µM
same,TGI,KM12 colon,> 100 µM
COc1ccc(C(c2cc(OC)c(OC)c(OC)c2)N2C(=O)CCC2C(=O)O)cc1 (stereo unspecified),TGI,786-0 renal,> 100 µM
same,TGI,DU-145 prostate,> 100 µM
same,TGI,NCI-H23 lung,> 100 µM
same,TGI,OVCAR-4 ovarian,> 100 µM
same,TGI,KM12 colon,> 100 µM
COc1ccc2c(c1)C1c3ccccc3CCN1CCC2 (stereo unspecified),TGI,786-0 renal,> 100 µM
same,TGI,RXF 393 renal,> 100 µM
same,TGI,DU-145 prostate,> 100 µM
same,TGI,NCI-H23 lung,> 100 µM
same,TGI,OVCAR-4 ovarian,> 100 µM
same,TGI,KM12 colon,> 100 µM
CC(=O)c1sc2n(C)c(=O)c3ccccc3[n+]2c1C,TGI,786-0 renal,> 100 µM
same,TGI,RXF 393 renal,> 100 µM
same,TGI,DU-145 prostate,> 100 µM
same,TGI,NCI-H23 lung,> 100 µM
same,TGI,OVCAR-4 ovarian,> 100 µM
same,TGI,KM12 colon,> 100 µM
CCOC(=O)CON=c1c2ccccc2ccc2ccccc12,TGI,786-0 renal,> 100 µM
same,TGI,RXF 393 renal,> 100 µM
same,TGI,DU-145 prostate,> 100 µM
same,TGI,NCI-H23 lung,> 100 µM
same,TGI,OVCAR-4 ovarian,> 100 µM
same,TGI,KM12 colon,> 100 µM
Cc1cc(C)nc(NS(=O)(=O)c2ccc(Nc3nnc(/C=C/c4c(O)ccc5ccccc45)c(=O)n3N)cc2)n1,TGI,786-0 renal,62.9 µM
same,TGI,RXF 393 renal,55.3 µM
same,TGI,DU-145 prostate,> 100 µM
same,TGI,NCI-H23 lung,57.7 µM
same,TGI,OVCAR-4 ovarian,85.2 µM
CN(C)c1cccc(/C=C(\C#N)c2ccccc2)c1,TGI,786-0 renal,> 60.9 µM
same,TGI,RXF 393 renal,4.51 µM
same,TGI,DU-145 prostate,33.5 µM
same,TGI,NCI-H23 lung,45 µM
same,TGI,OVCAR-4 ovarian,98 µM
same,TGI,KM12 colon,8.92 µM
